The record followed here is patent US11993599B2, “Therapeutic compounds” (Genentech, Inc., priority 2021, dated 2024).

One experiment deals with BRM (Homo sapiens, UniProt P51531). Briefly: Immunofluorescence assay for BRM degradation in SW1573 cells. Particulars: 20 hours incubation; for DC50: immunofluorescence mean nuclear signal, read-out: BRM IF Degradation IC50; for BRM IF Degradation Sinf (%): normalized to a known degrader control. Format: cell-based. The arrangement: treated overnight at 4° C. with either BRM primary antibody (Cell signaling Cat #11966) or BRG primary antibody; endogenous in cells; host or cells: SW1573. How it is done:
(§1) Example B-2: Immunofluorescence Assay for BRM and BRG1 Degraders
(§2) SW1573 cells were seeded at 3000 cells/well in 384 well plates. The next day, compounds were added using an Echo dispenser. After 20 hours of incubation with compound, cells were fixed with 4% formaldehyde then permeabilized with 0.2% Triton X-100 and blocked with 10% FCS. Fixed and permeabilized cells were treated overnight at 4° C. with either BRM primary antibody (Cell signaling Cat #11966) or BRG primary antibody (Abcam, ab 110641). Finally, cells were treated with fluorescently labeled secondary antibodies for 1 hr (Donkey anti-Rabbit IgG AF488, Life Technologies, A21206) and Hoechst nuclear stain (#H3569) was added for 30 minutes. Cells were washed with PBS in between each step and before imaging on an Opera Phenix microscope (Perkin Elmer). Harmony software (Perking Elmer) was used to quantify the mean nuclear signaling intensity of BRM or BRG signaling per cell in each well. Dose responses were determined from the concentration dependent response of mean nuclear signal intensity with data normalized to a known degrader control. Dose response curves were fit to a floating maximum to allow for calculation of the Dmax.
(§3) Note that, in Table 5, the “Compound Number” corresponds to that used in Table 1. In Table 5, for BRM and BRG1 IF degradation IC50 (μM): A indicates <0.010 μM, B indicates 0.010-0.10 μM, and C indicates >0.10 μM; and for BRM and BRG1 IF degradation Sinf % D indicates 0-−30%, E indicates −30%-−70%, F indicates −71%-−120% and ND indicates the value was not determined.

The next experiment concerns the target T1, BRG1 (Homo sapiens, UniProt P51532).
T1 construct: either BRM primary antibody (Cell signaling Cat #11966) or BRG primary antibody (Abcam, ab 110641); endogenous in cells; host or cells: SW1573
Briefly: Immunofluorescence assay for BRG1 degradation in SW1573 cells. The note with it: 20 hours incubation; for DC50: immunofluorescence mean nuclear signal, read-out: BRG1 IF Degradation IC50; for Dmax: SW1573, 20 h, normalized to a known degrader control, read-out: BRG1 IF Degradation Sinf (%). In kind it is cell-based. As to the method:
as §1, §2, §3

T1 sequence (P51532 whole entry): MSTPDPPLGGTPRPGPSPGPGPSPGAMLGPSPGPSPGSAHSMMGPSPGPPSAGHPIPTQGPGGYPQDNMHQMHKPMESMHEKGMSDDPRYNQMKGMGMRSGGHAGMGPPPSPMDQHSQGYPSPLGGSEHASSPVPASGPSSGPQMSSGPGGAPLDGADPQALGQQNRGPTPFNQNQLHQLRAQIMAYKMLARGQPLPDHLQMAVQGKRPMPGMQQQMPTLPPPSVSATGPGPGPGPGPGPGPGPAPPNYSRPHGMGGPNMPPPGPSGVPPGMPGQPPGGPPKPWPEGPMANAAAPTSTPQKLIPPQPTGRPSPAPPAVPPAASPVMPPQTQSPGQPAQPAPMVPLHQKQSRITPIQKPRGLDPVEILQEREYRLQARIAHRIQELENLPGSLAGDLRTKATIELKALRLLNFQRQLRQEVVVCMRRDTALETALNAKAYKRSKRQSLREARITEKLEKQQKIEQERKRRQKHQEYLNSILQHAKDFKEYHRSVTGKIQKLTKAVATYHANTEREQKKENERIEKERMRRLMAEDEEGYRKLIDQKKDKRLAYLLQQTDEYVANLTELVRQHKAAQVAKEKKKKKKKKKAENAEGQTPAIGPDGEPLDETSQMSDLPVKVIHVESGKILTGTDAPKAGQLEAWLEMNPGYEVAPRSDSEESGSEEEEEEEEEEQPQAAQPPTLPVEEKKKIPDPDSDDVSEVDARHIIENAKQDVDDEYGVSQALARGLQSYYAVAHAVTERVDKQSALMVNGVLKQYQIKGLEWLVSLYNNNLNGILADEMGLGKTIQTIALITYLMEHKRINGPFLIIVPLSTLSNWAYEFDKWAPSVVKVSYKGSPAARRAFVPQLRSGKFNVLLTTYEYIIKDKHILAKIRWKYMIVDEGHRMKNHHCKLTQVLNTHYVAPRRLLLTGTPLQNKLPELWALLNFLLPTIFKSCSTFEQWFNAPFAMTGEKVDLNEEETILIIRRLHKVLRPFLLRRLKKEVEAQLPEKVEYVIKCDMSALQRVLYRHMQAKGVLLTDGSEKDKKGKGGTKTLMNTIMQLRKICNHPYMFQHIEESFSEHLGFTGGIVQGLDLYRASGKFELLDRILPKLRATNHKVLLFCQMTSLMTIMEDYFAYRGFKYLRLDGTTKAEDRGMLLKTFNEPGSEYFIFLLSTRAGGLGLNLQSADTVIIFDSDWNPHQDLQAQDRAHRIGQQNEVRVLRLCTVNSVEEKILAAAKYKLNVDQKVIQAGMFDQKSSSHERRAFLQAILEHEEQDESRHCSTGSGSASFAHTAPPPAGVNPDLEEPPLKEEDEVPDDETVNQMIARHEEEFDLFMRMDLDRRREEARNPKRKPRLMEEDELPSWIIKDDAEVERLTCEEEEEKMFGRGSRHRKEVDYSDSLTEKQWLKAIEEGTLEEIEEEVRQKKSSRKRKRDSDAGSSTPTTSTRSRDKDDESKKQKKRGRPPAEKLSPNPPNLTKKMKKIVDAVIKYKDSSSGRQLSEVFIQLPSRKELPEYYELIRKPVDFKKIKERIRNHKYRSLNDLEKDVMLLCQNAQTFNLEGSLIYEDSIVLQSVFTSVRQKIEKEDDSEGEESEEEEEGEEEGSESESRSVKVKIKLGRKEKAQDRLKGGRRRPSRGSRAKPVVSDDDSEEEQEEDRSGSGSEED
BRM, sequence (P51531 whole entry): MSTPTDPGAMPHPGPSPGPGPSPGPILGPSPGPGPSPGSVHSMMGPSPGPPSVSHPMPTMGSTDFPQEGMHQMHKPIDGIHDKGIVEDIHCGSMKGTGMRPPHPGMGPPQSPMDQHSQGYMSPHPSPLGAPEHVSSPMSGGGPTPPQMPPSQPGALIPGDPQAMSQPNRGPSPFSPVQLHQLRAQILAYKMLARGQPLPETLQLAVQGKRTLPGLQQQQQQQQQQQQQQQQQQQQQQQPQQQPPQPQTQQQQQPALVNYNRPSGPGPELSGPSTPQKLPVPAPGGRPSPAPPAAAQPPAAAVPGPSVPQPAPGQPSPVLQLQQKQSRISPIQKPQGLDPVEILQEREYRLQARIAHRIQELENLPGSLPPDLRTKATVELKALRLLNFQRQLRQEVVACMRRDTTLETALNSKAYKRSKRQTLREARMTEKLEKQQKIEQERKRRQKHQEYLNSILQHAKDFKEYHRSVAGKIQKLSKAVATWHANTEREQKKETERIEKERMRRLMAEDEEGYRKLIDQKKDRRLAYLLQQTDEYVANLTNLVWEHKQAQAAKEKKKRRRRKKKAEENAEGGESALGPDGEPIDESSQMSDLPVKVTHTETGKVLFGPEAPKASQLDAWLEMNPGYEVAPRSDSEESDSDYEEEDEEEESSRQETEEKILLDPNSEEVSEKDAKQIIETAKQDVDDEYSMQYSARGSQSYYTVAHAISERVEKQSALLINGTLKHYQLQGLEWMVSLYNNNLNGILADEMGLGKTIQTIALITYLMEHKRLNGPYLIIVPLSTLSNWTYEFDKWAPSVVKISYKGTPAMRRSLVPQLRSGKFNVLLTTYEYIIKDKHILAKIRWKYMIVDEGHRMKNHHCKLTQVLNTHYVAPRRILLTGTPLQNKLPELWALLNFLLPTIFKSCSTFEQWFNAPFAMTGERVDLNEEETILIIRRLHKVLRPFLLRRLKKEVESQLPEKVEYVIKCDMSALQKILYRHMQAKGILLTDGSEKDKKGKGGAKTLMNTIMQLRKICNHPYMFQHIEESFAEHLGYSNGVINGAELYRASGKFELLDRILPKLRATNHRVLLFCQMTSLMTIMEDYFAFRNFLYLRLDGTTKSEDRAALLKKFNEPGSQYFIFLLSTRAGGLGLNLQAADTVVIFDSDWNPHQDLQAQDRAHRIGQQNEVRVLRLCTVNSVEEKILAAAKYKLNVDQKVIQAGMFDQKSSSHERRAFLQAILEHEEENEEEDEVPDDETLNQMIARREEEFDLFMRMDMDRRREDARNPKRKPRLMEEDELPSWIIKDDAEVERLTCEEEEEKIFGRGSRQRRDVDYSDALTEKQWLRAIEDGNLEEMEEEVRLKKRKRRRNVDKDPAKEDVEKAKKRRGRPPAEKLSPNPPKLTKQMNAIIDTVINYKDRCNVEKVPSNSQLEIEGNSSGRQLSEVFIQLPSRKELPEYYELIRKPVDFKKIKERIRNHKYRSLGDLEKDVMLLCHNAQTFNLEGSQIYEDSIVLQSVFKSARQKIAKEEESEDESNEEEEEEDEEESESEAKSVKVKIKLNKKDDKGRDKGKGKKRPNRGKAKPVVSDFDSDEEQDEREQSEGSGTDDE

Take `Oc1ccccc1-c1cc2c(nn1)NC[C@H]1CN(c3ccnc(C#CCN4CCCCCC4)c3)CCN21` (single isomer, unassigned) [Compound 252]: at BRM, the DC50 is < 10 nM and the “BRM IF Degradation Sinf (%)” value was “F (F indicates −71%-−120%)”. Also, at BRG1, the DC50 was < 10 nM and the Dmax fell in the range of 71 to 120%.

In the case of `Oc1ccccc1-c1cc2c(nn1)NC[C@@H]1CN(c3ccnc(C#CCN4CCCCCC4)c3)CCN21` (single isomer, unassigned) [Compound 253], at BRM, the DC50 was < 10 nM and the “BRM IF Degradation Sinf (%)” value is “F (F indicates −71%-−120%)”. On BRG1, the DC50 was < 10 nM and the Dmax lay in the range of 71 to 120%.

As to `Nc1nnc(-c2ccccc2O)cc1N1CC2CCC(C1)N2c1ccnc(C#CCNC(=O)C2CCNCC2)c1` [Compound 35, N-[3-[4-[3-[3-amino-6-(2-hydroxyphenyl)pyridazin-4-yl]-3,8-diazabicyclo[3.2.1]octan-8-yl]-2-pyridyl]prop-2-ynyl]piperidine-4-carboxamide], at BRM, the DC50 is > 100 nM and the “BRM IF Degradation Sinf (%)” value is given as “E (E indicates −30%-−70%)”. Moreover, the DC50 at BRG1 is > 100 nM.

As for `CC(C)(N)C#Cc1cc(N2C3CCC2CN(c2cc(-c4ccccc4O)nnc2N)C3)ccn1` [Compound 36, 2-[6-amino-5-[8-[2-(3-amino-3-methyl-but-1-ynyl)-4-pyridyl]-3,8-diazabicyclo[3.2.1]octan-3-yl]pyridazin-3-yl]phenol], at BRM, the DC50 is 10 to 100 nM and the “BRM IF Degradation Sinf (%)” value was “E (E indicates −30%-−70%)”. Moreover, at BRG1, the DC50 fell in the range of 10 to 100 nM and the Dmax lay within 30 to 70%.

With `COC1CCCN(CC#Cc2cc(N3C4CCC3CN(c3cc(-c5ccccc5O)nnc3N)C4)ccn2)C1` (stereo not shown) [Compound 37, 2-[6-amino-5-[8-[2-[3-(3-methoxy-1-piperidyl)prop-1-ynyl]-4-pyridyl]-3,8-diazabicyclo[3.2.1]octan-3-yl]pyridazin-3-yl]phenol], at BRM, the DC50 is 10 to 100 nM and the “BRM IF Degradation Sinf (%)” value is given as “E (E indicates −30%-−70%)”. Further, at BRG1, the DC50 is < 10 nM and the Dmax was in the range of 30 to 70%.

As for `Nc1nnc(-c2ccccc2O)cc1N1CC2CCC(C1)N2c1ccnc(C#CCN2CCN(C3CC3)CC2)c1` [Compound 38, 2-[6-amino-5-[8-[2-[3-(4-cyclopropylpiperazin-1-yl)prop-1-ynyl]-4-pyridyl]-3,8-diazabicyclo[3.2.1]octan-3-yl]pyridazin-3-yl]phenol], at BRM, the DC50 was 10 to 100 nM and the “BRM IF Degradation Sinf (%)” value was “E (E indicates −30%-−70%)”. Also, the DC50 at BRG1 is > 100 nM.

Take `Nc1nnc(-c2ccccc2O)cc1N1CC2CCC(C1)N2c1ccnc(C#CCN2CC3CCCCC3C2)c1` (stereo not shown) [Compound 39, 2-[5-[8-[2-[3-(1,3,3a,4,5,6,7,7a-octahydroisoindol-2-yl)prop-1-ynyl]-4-pyridyl]-3,8-diazabicyclo[3.2.1]octan-3-yl]-6-amino-pyridazin-3-yl]phenol]: at BRM, the DC50 was < 10 nM and the “BRM IF Degradation Sinf (%)” value was “F (F indicates −71%-−120%)”. In addition, at BRG1, the DC50 is < 10 nM and the Dmax is 30 to 70%.

For `CC1CN(CC#Cc2cc(N3C4CCC3CN(c3cc(-c5ccccc5O)nnc3N)C4)ccn2)CCN1` (stereo not shown) [Compound 40, 2-[6-amino-5-[8-[2-[3-(3-methylpiperazin-1-yl)prop-1-ynyl]-4-pyridyl]-3,8-diazabicyclo[3.2.1]octan-3-yl]pyridazin-3-yl]phenol], at BRM, the DC50 was > 100 nM and the “BRM IF Degradation Sinf (%)” value is “E (E indicates −30%-−70%)”. Also, the DC50 on BRG1 was > 100 nM.

Consider `COCC1CCCCN1CC#Cc1cc(N2C3CCC2CN(c2cc(-c4ccccc4O)nnc2N)C3)ccn1` (stereo not shown) [Compound 41, 2-[6-amino-5-[8-[2-[3-[2-(methoxymethyl)-1-piperidyl]prop-1-ynyl]-4-pyridyl]-3,8-diazabicyclo[3.2.1]octan-3-yl]pyridazin-3-yl]phenol], for which, on BRM, the DC50 lay in the range of 10 to 100 nM and the “BRM IF Degradation Sinf (%)” value is on record as “E (E indicates −30%-−70%)”. In addition, at BRG1, the DC50 fell in the range of 10 to 100 nM and the Dmax was in the range of 30 to 70%.

For the compound `CC1CN(CC#Cc2cc(N3C4CCC3CN(c3cc(-c5ccccc5O)nnc3N)C4)ccn2)CCCO1` (stereo not shown) [Compound 42, 2-[6-amino-5-[8-[2-[3-(2-methyl-1,4-oxazepan-4-yl)prop-1-ynyl]-4-pyridyl]-3,8-diazabicyclo[3.2.1]octan-3-yl]pyridazin-3-yl]phenol], at BRM, the DC50 is 10 to 100 nM and the “BRM IF Degradation Sinf (%)” value is recorded as “E (E indicates −30%-−70%)”. On BRG1, the DC50 was 10 to 100 nM and the Dmax lay in the range of 30 to 70%.

For `Nc1nnc(-c2ccccc2O)cc1N1CC2CCC(C1)N2c1ccnc(C#CCN2CCC(F)(F)C2)c1` [Compound 43, 2-[6-amino-5-[8-[2-[3-(3,3-difluoropyrrolidin-1-yl)prop-1-ynyl]-4-pyridyl]-3,8-diazabicyclo[3.2.1]octan-3-yl]pyridazin-3-yl]phenol], on BRM, the DC50 was in the range of 10 to 100 nM and the “BRM IF Degradation Sinf (%)” value is reported as “E (E indicates −30%-−70%)”. Further, at BRG1, the DC50 was < 10 nM and the Dmax was in the range of 0 to 30%.

Consider `Nc1nnc(-c2ccccc2O)cc1N1CC2CCC(C1)N2c1ccnc(C#CCN2CCC3(CCCO3)C2)c1` (stereo not shown) [Compound 44, 2-[6-amino-5-[8-[2-[3-(1-oxa-7-azaspiro[4.4]nonan-7-yl)prop-1-ynyl]-4-pyridyl]-3,8-diazabicyclo[3.2.1]octan-3-yl]pyridazin-3-yl]phenol], for which, on BRM, the DC50 is < 10 nM and the “BRM IF Degradation Sinf (%)” value was “E (E indicates −30%-−70%)”. Further, at BRG1, the DC50 was 10 to 100 nM and the Dmax lay within 30 to 70%.

As to `Nc1nnc(-c2ccccc2O)cc1N1CC2CCC(C1)N2c1ccnc(C#CCN2CCC(CO)CC2)c1` [Compound 45, 2-(6-amino-5-(8-(2-(3-(4-(hydroxymethyl)piperidin-1-yl)prop-1-yn-1-yl)pyridin-4-yl)-3,8-diazabicyclo[3.2.1]octan-3-yl)pyridazin-3-yl)phenol], on BRM, the DC50 was in the range of 10 to 100 nM and the “BRM IF Degradation Sinf (%)” value was “E (E indicates −30%-−70%)”. At BRG1, the DC50 lay within 10 to 100 nM and the Dmax lay in the range of 30 to 70%.

For the compound `Nc1nnc(-c2ccccc2O)cc1N1CC2CCC(C1)N2c1ccnc(C#CCCN2CCCCC2)c1` [Compound 182, 2-[6-amino-5-[8-[2-[4-(1-piperidyl)but-1-ynyl]-4-pyridyl]-3,8-diazabicyclo[3.2.1]octan-3-yl]pyridazin-3-yl]phenol], at BRM, the DC50 is > 100 nM and the “BRM IF Degradation Sinf (%)” value is given as “F (F indicates −71%-−120%)”.

Consider `CC1CCN(CC#Cc2cc(N3C4CCC3CN(c3cc(-c5ccccc5O)nnc3N)C4)ccn2)CCC1=O` (stereo not shown) [Compound 198, 1-[3-[4-[3-[3-amino-6-(2-hydroxyphenyl)pyridazin-4-yl]-3,8-diazabicyclo[3.2.1]octan-8-yl]-2-pyridyl]prop-2-ynyl]-5-methyl-azepan-4-one], for which, at BRM, the DC50 is < 10 nM and the “BRM IF Degradation Sinf (%)” value is listed as “E (E indicates −30%-−70%)”.

In the case of `Nc1nnc(-c2ccccc2O)cc1N1CC2CCC(C1)N2c1ccnc(C#CCN2CCCN(c3ccncc3)CC2)c1` [Compound 204, 2-[6-amino-5-[8-[2-[3-[4-(4-pyridyl)-1,4-diazepan-1-yl]prop-1-ynyl]-4-pyridyl]-3,8-diazabicyclo[3.2.1]octan-3-yl]pyridazin-3-yl]phenol], at BRM, the DC50 is 10 to 100 nM and the “BRM IF Degradation Sinf (%)” value is on record as “E (E indicates −30%-−70%)”.

Take `CC1(C)CC(O)CCN(CC#Cc2cc(N3C4CCC3CN(c3cc(-c5ccccc5O)nnc3N)C4)ccn2)C1` (stereo not shown) [Compound 213, 1-[3-[4-[3-[3-amino-6-(2-hydroxyphenyl)pyridazin-4-yl]-3,8-diazabicyclo[3.2.1]octan-8-yl]-dimethyl-azepan-4-ol 2-pyridyl]prop-2-ynyl]-6,6-]: on BRM, the DC50 lay within 10 to 100 nM and the “BRM IF Degradation Sinf (%)” value is reported as “E (E indicates −30%-−70%)”.

For the compound `Nc1nnc(-c2ccccc2O)cc1N1CC2CCC(C1)N2c1ccnc(C#CCN2CC3C4CCC(C4)C32)c1` (stereo not shown) [Compound 220, 2-[6-amino-5-[8-[2-[3-(3-azatricyclo[4.2.1.02,5]nonan-3-yl)prop-1-ynyl]-4-pyridyl]-3,8-diazabicyclo[3.2.1]octan-3-yl]pyridazin-3-yl]phenol], at BRM, the DC50 was > 100 nM and the “BRM IF Degradation Sinf (%)” value was “E (E indicates −30%-−70%)”.

For the compound `Nc1nnc(-c2ccccc2O)cc1N1CC2CCC(C1)N2c1ccnc(/C=C/CN2CCCCCC2)c1` [Compound 248, (E)-2-(6-amino-5-(8-(2-(3-(azepan-1-yl)prop-1-en-1-yl)pyridin-4-yl)-3,8-diazabicyclo[3.2.1]octan-3-yl)pyridazin-3-yl)phenol], at BRM, the DC50 is < 10 nM and the “BRM IF Degradation Sinf (%)” value is reported as “E (E indicates −30%-−70%)”.
